Test results as given in patent US9109041B2, “Analog compounds of analgesic peptides derived from the venom of crotalus durissus terrificus snakes, their uses, compositions, methods of preparation and purification” (priority 2004, dated 2015).
Bridges are numbered along the chain shown (N, C = ends). Where no end group is shown, it is not given here. [ ]: non-standard residue; d: D form. pGlu = O=C1CC[C@@H](C(=O)O)N1

Test system: prostaglandin E2-induced hyperalgesia
Test: rat paw pressure test, prostaglandin E2-induced hyperalgesia
Conditions: for pain threshold, FM (g) ± S.E.M: 3 h after PGE2 100 ng/paw i.pl.; for analgesic activity: synthetic peptides compared with natural ENPAK-k, similar conditions
[1] = oral route, reversal of PGE2-induced hyperalgesia, CurveExpert 1.3

With CN1CC[C@]23c4c5ccc(O)c4O[C@H]2[C@@H](O)C=C[C@H]3[C@H]1C5 [Morphine, reference compound] the “pain threshold, FM (g) ± S.E.M” value (morphine 0.004 μg/kg p.o.) was 69 ± 1.87 g, the “pain threshold, IM (g) ± S.E.M.” value (morphine 0.004 μg/kg p.o., before PGE2) was 77 ± 1.22 g and the “pain threshold, FM (g) ± S.E.M” value (morphine 0.2 μg/kg p.o.) was 70 ± 1.58 g. The “pain threshold, IM (g) ± S.E.M.” value (morphine 0.2 μg/kg p.o., before PGE2) was 76 ± 1.87 g, the “pain threshold, FM (g) ± S.E.M” value (morphine 1 μg/kg p.o.) was 85 ± 1.58 g and the “pain threshold, IM (g) ± S.E.M.” value (morphine 1 μg/kg p.o., before PGE2) was 78 ± 1.22 g. The “pain threshold, FM (g) ± S.E.M” value (morphine 5 μg/kg p.o.) was 109 ± 1.87 g, the “pain threshold, IM (g) ± S.E.M.” value (morphine 5 μg/kg p.o., before PGE2) was 78 ± 1.22 g and the 50% effective dose [1] was 0.05515 µg/kg. For the same compound, the 90% effective dose [1] was 0.3267 µg/kg.
For “SEQ ID NO: 3: one of 4 possible sequences pGlu-Phe-Ser-Pro-Glu-Asn-Cys-Lys/Gln-Gly-Glu-Ser-Lys/Gln-Pro-Cys; modified synthetic peptide (XFSPENCQGESKPC; Synthetically generated peptide)”, the “pain threshold, FM (grams) ± S.E.M.” value (p.o., 2 ml of solution (peptide diluted in 11 ml of saline), 3 hours after PGE2 100 ng/paw i.pl.) was 110 ± 2.74 grams, the “pain threshold, IM (grams) ± S.E.M.” value (p.o., 2 ml of solution (peptide diluted in 11 ml of saline), before PGE2) was 76 ± 1.00 grams and the analgesic activity was “demonstrated analgesic activity”.
With “SEQ ID NO: 6: one of 4 possible sequences pGlu-Phe-Ser-Pro-Glu-Asn-Cys-Lys/Gln-Gly-Glu-Ser-Lys/Gln-Pro-Cys; synthetic peptide (XFSPENCKGESQPC; Synthetically generated peptide)” the analgesic activity was “inactivity”.
For “SEQ ID NO: 7: one of 4 possible sequences pGlu-Phe-Ser-Pro-Glu-Asn-Cys-Lys/Gln-Gly-Glu-Ser-Lys/Gln-Pro-Cys; synthetic peptide ([pGlu]FSPENCKGESKPC; disulfide 7-14)”, the analgesic activity was “inactivity”.
